Experimental data as given in PMC4760439, “Glicentin‐related pancreatic polypeptide inhibits glucose‐stimulated insulin secretion from the isolated pancreas of adult male rats” (Physiological Reports, 2015).
“Also recorded” adds a separate entry of the source.

Tests used:
canine pancreas = settings: cited from earlier work
Text: However, we know of only one study reporting the effects of GRPP on GSIS. […] The precise experimental conditions such as amount of glucose and experimental model used may have influences on the different outcomes; however, the reason for the opposing actions of GRPP between these ...

perfused rat liver = assay: Isolated perfused rat liver: glucose output, lactate output, portal pressure; set-up: species or system Male Sprague‐Dawley rat; settings: for Lactate output (effect of peptide vs control) / Portal pressure (effect of peptide vs control) / Glucose output, epinephrine‐stimulated (effect of peptide vs control): 2.3 or 230 pmol g^−1 min^−1 (n = 5 and n = 3), epinephrine 100 pmol g^−1 min^−1, 30–60 min; for Glucose output, epinephrine‐stimulated (effect of peptide vs control): 37°C
Procedure: (§1) All studies were performed under approval of the University of Auckland Animal Ethics Committee and were consistent with the ARRIVE guidelines (Kilkenny et al. 2012). Male Sprague‐Dawley rats (220–300 g) were obtained from a breeding colony in the Integrated Physiology Unit, School of Biological Sciences at the University of Auckland. Animals were housed in standard environmental conditions under a 12‐hour light/dark cycle and a temperature of 20 ± 1°C. They were maintained on Teklad TB 2018 (Harlan, UK) rat chow and tap water ad libitum.
Under general anesthesia (isoflurane 2–5%; 2 L min^−1 O2 via nasal cone), nonfasted rats underwent laparotomy between 8:00 and 9:00 AM on the experimental day. The liver was removed and quickly connected to a custom‐made, temperature‐controlled, organ perfusion system, whereby it was perfused (in nonrecirculating mode) in a manner similar to that reported previously (Englisch et al. 2000; Whiting et al. 2013). Livers were perfused at a rate of 2 mL g^−1 min^−1 with perfusion media containing final concentrations (in mmol L^−1): NaCl, 128; NaHCO3, 23.9; KCl, 6.0; CaCl2, 2.4; MgSO4, 1.18; D‐glucose, 5; 3‐(‐N‐morpholino)propane sulfonate, 1.29; with fatty‐acid‐free BSA, 0.5% (w/v) at pH 7.4 gassed with O2:CO2 95:5% (v/v) at 37°C. Each liver was stabilized for 40 min: thereafter, hormone‐containing solutions or vehicle (buffer only) was delivered via a side‐arm infusion. Hormones were also investigated with regard to their ability to attenuate epinephrine‐stimulated hepatic glucose output (Epinephrine, Sigma‐Aldrich, St. Louis, MO). Epinephrine was added 30 min after the addition of hormones was commenced.
(§2) Measurement of organ perfusion parameters
(§3) Glucose and lactate concentrations were measured in both organ preparations using a YSI2300 Stat glucose and lactate analyzer (Yellow Springs, Ohio). Portal pressure was measured in isolated‐perfused liver preparations in mmH2O via a T‐tube located 10 cm upstream from the preparation.
(§4) Maximum pancreatic first‐phase insulin secretion in the presence of hormone infusion was contrasted with corresponding control values by unpaired Welch's t‐tests for preplanned comparisons, to allow for unequal variance between groups. Linear mixed‐effects models were fitted by restricted maximum likelihood (LME‐REML) to data obtained from each indicated phase of isolated perfused–organs studies, using S‐PLUS version 8.2 (TIBCO, Spotfire). Calculated P‐values <0.05 are presented in the article and reflect the likelihood ratio between two models, the effect in question (treatment, time, or treatment:time) against the model without the effect in question. Insulin secreted from isolated islets was expressed as a percentage of insulin content and compared using one‐way ANOVA (GraphPad Prism version 6.0: GraphPad Software Inc., San Diego, CA). Cyclic AMP data have been normalized to the response obtained to forskolin and fitted to obtain concentration–response curves using a three‐parameter logistic equation (GraphPad Prism version 6.0: GraphPad Software Inc., San Diego, CA): pEC50 values were obtained from the concentration–response curves and compared using one‐way ANOVA. All data are presented as mean ± SEM of three to four independent experiments.
Figure 2 Effect of rGRPP and rGRPP‐LP on glucose output, lactate output, and portal pressure in the isolated perfused rat liver. Livers from Sprague‐Dawley rats were isolated and perfused with rGRPP (left panels: 2.3 or 230 pmol g^−1 min^−1, n = 5 and n = 3, respectively), rGRPP‐LP (right panels: 2.3 or 230 pmol g^−1 min^−1, n = 5 and n = 3), or vehicle (all panels: control, n = 5). Livers were perfused with hormones or vehicle from 0 to 60 min with 0–30 min as the basal period.

[1] = system: isolated perfused rat pancreas; assay: Isolated perfused rat pancreas: insulin secretion (GSIS), lactate; set-up: species or system Male Sprague‐Dawley rat; settings: for Insulin secretion at 5 mmol L^−1 glucose (vs control): first 20 min; for Insulin secretion at 5 mmol L^−1 glucose (vs control) / Glucose‐stimulated insulin secretion (GSIS) at 20 mmol L^−1 glucose (vs control): rGRPP and rGRPP‐LP 3 or 30 pmol min^−1, hGLP‐1 7–36 30 pmol min^−1, n = 5/group, insulin by ELISA, 37°C; for Glucose‐stimulated insulin secretion (GSIS) at 20 mmol L^−1 glucose (vs control): 20–40 min; for Glucose‐stimulated insulin secretion (GSIS) at 20 mmol L^−1 glucose (vs control) / First phase of GSIS (vs control) / Second phase of GSIS (vs control): 20 mmol L^−1 glucose; for First phase of GSIS (vs control): t = 22 min; for Second phase of GSIS (vs control): t = 26 min to t = 40
Procedure: as §1
Isolated pancreas perfusion
General aspects of the preparation for the isolated pancreas perfusions were the same as those for the liver perfusion studies (above). Particular aspects of the preparation for the pancreas perfusion studies were as follows. After laparotomy, the pancreas and duodenum were removed en bloc and perfused (in nonrecirculating mode) consistent with our previous report (Buchanan et al. 2001). Each pancreatic preparation was quickly connected to the custom‐made, temperature‐controlled, organ perfusion system and perfused at 3 mL min^−1 with oxygenated perfusion buffer (containing at final concentrations in mmol L^−1): NaCl, 112; NaHCO3, 29.3; KCl, 4.4; CaCl2, 2.4; MgSO4, 1.2; D‐glucose, 5.0; with BSA, 0.5% (w/v), Dextran 4% (w/v) at pH 7.4 gassed with O2:CO2 95:5% (v/v) at 37°C. […] Each pancreas was stabilized for 30 min before hormones or vehicle (buffer only) was delivered via a side‐arm infusion.
as §2, §3, §4
Figure 3 Effects of proglucagon products on insulin secretion in the isolated‐perfused rat pancreas.

[2] = target: T1, human glucagon receptor (hGL‐R) (Homo sapiens, UniProt P47871); assay: cAMP stimulation in transfected Cos 7 cells, hGL‐R; format: cell-based; settings: Cos 7, 37°C, 10 min, ALPHA‐screen
T1 construct: expressed in transfected cells; host or cells: Cos 7 cells
Procedure: (§5) Transfection of Cos 7 cells
(§6) Cos 7 cells were maintained and subcultured as previously described (Bailey and Hay 2006) and plated at a density of 15,000 cells per well into 96‐well plates 1 day prior to transfection. […] Cyclic AMP assays were performed 48 h after transfection (Bailey and Hay 2006). The human GRPP was obtained from Bachem (Bubendorf, Switzerland).
(§7) Cyclic AMP stimulation of transfected Cos 7 cells
(§8) Transfected cells were serum‐deprived in DMEM containing 1 mmol L^−1 IBMX and 0.1% (w/v) bovine serum albumin (BSA) for 30 min. […] Plates were incubated at 37°C for 10 min. […] Media were then aspirated from the wells and reactions terminated by addition of ice‐cold absolute ethanol. Ethanol was then evaporated to dryness and cell extracts re‐suspended in 45 μL cAMP assay buffer: cAMP concentrations were determined using ALPHA‐screen assay kits (Perkin Elmer, Massachusetts) as previously described (Gingell et al. 2010).
as §4, with “Cyclic AMP data have been normalized to the response obtained to forskolin and fitted to obtain concentration–response curves using a three‐parameter logistic equation (GraphPad Prism version 6.0: GraphPad Software Inc., San Diego, CA): pEC50 values were obtained from the concentration–response curves and compared using one‐way ANOVA. All data are presented as mean ± SEM of three to four independent experiments.” left out

[3] = target: T2, human GLP‐1 receptor (hGLP‐1R) (Homo sapiens, UniProt P43220); assay: cAMP stimulation in transfected Cos 7 cells, hGLP‐1R; format: cell-based; settings: Cos 7, 37°C, 10 min, ALPHA‐screen
T2 construct: expressed in transfected cells; host or cells: Cos 7 cells
Procedure: as §5, §6, §7, §8
(§9) Maximum pancreatic first‐phase insulin secretion in the presence of hormone infusion was contrasted with corresponding control values by unpaired Welch's t‐tests for preplanned comparisons, to allow for unequal variance between groups. […] Calculated P‐values <0.05 are presented in the article and reflect the likelihood ratio between two models, the effect in question (treatment, time, or treatment:time) against the model without the effect in question. […]

[4] = target: T1, human glucagon receptor (hGL‐R); assay: Antagonism of glucagon‐stimulated cAMP production, hGL‐R; format: cell-based; settings: peptide preincubated 5 min
Procedure: as §5, §6, §7, §8, §9

[5] = target: T2, human GLP‐1 receptor (hGLP‐1R); assay: Antagonism of GLP‐1 7–36‐stimulated cAMP production, hGLP‐1R; format: cell-based; settings: peptide preincubated 5 min
Procedure: as §5, §6, §7, §8, §9

[6] = 100 pmol g^−1 min^−1, 30–60 min, all groups

T1 sequence (P47871 26-477): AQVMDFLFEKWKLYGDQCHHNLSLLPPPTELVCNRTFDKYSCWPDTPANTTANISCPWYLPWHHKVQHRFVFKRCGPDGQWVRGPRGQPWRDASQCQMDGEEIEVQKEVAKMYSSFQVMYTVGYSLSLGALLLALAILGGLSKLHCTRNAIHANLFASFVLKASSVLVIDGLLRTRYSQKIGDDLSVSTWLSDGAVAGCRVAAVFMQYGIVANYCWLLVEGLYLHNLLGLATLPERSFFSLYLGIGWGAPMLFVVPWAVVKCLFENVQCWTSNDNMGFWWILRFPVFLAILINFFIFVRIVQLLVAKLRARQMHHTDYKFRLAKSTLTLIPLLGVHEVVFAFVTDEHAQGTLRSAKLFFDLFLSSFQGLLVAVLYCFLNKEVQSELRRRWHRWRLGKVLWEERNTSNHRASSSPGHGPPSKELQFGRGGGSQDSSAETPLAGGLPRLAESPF
T2 sequence (P43220 24-463): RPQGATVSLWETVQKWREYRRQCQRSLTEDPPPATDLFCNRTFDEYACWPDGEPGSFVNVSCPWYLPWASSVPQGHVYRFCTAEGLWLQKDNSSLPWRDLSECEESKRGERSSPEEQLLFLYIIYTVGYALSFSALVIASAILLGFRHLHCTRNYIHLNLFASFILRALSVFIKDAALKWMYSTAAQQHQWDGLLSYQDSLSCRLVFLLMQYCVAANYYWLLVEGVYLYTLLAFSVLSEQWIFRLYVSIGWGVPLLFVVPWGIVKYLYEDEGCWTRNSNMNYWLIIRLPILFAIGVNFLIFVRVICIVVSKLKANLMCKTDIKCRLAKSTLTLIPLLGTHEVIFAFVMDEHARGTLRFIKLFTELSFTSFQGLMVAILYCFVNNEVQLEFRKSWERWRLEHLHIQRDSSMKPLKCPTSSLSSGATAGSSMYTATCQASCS

Compound | Lactate output (effect of peptide vs control) (perfused rat liver) | Portal pressure (effect of peptide vs control) (perfused rat liver) | Glucose output, epinephrine‐stimulated (effect of peptide vs control) (perfused rat liver) | Insulin secretion at 5 mmol L^−1 glucose (vs control) [1] | Glucose‐stimulated insulin secretion (GSIS) at 20 mmol L^−1 glucose (vs control) [1] | First phase of GSIS (vs control) [1] | Second phase of GSIS (vs control) [1] | Stimulation of cAMP production at hGL‐R [2] | Stimulation of cAMP production at hGLP‐1R [3] | Antagonism of glucagon‐stimulated cAMP production [4] | Antagonism of GLP‐1‐stimulated cAMP production [5] | further results
porcine GRPP: porcine GRPP, literature peptide (RSLQNTEEKSRSFPAPQTDPLDDPDQMTED; Glicentin-related polypeptide; UniProt P01274 21-50, looked up) | – | – | – | – | – | – | – | – | – | – | – | Insulin and glucagon secretion, canine pancreas (canine pancreas; ref Ohneda and Ohneda 1988): insulin was possibly increased and glucagon decreased
HAPQDTEENARSFPASQTEPLEDPDQINED [rGRPP, rat glicentin‐related pancreatic polypeptide, 30 amino acid Gcg‐derived peptide, synthesized by Fmoc solid‐phase peptide synthesis] | Neither dose of rGRPP nor rGRPP‐LP modified these parameters compared with control values | Neither dose of rGRPP nor rGRPP‐LP modified these parameters compared with control values | not modified by rGRPP or GRPP‐LP; also recorded: Neither dose of rGRPP nor rGRPP‐LP modified these parameters compared with control values | No significant difference in insulin secretion | potent inhibition of glucose‐stimulated insulin secretion (GSIS) from the rat pancreas; also recorded: inhibited GSIS | inhibited the initial first phase of GSIS in the isolated rat pancreas | ongoing suppression of insulin secretion throughout the second phase | neither rGRPP nor rGRPP‐LP stimulated cAMP production at either receptor | neither rGRPP nor rGRPP‐LP stimulated cAMP production at either receptor | nor did they antagonize glucagon‐ or GLP‐1‐stimulated cAMP‐production at either receptor; also recorded: no shifts in the GLP‐1 7–36 or glucagon concentration–response curves | nor did they antagonize glucagon‐ or GLP‐1‐stimulated cAMP‐production at either receptor; also recorded: no shifts in the GLP‐1 7–36 or glucagon concentration–response curves | –
CNC[C@H](O)c1ccc(O)c(O)c1 [epinephrine, reference compound] | – | – | – | – | – | – | – | – | – | – | – | Glucose output, effect of epinephrine (perfused rat liver; [6]): evoked an increase in glucose output in all groups; Lactate release, effect of epinephrine (perfused rat liver; [6]): expected elevation of lactate release; Portal pressure, effect of epinephrine (perfused rat liver; [6]): expected elevation of lactate release and portal pressure
human glicentin 12–69: encompasses both GRPP and glucagon sequences (SFSASQADPLSDPDQMNEDKRHSQGTFTSDYSKYLDSRRAQDFVQWLMNTKRNRNNIA; Glicentin; UniProt P01275 32-89, looked up, fragment) | – | – | – | – | – | – | – | – | – | – | – | GSIS and glucagon secretion, perfused canine pancreas (canine pancreas; ref Yanaihara et al. 1985): enhanced GSIS and inhibited glucagon secretion in the perfused canine pancreas
HAPQDTEENARSFPASQTEPLEDPNQINE [rGRPP‐LP, rat GRPP‐like peptide] | Neither dose of rGRPP nor rGRPP‐LP modified these parameters compared with control values | Neither dose of rGRPP nor rGRPP‐LP modified these parameters compared with control values | Neither dose of rGRPP nor rGRPP‐LP modified these parameters compared with control values | No significant difference in insulin secretion | potent inhibition of glucose‐stimulated insulin secretion (GSIS) from the rat pancreas; also recorded: inhibited GSIS | inhibited the initial first phase of GSIS in the isolated rat pancreas | ongoing suppression of insulin secretion throughout the second phase | neither rGRPP nor rGRPP‐LP stimulated cAMP production at either receptor | neither rGRPP nor rGRPP‐LP stimulated cAMP production at either receptor | nor did they antagonize glucagon‐ or GLP‐1‐stimulated cAMP‐production at either receptor | nor did they antagonize glucagon‐ or GLP‐1‐stimulated cAMP‐production at either receptor | Glucose output, epinephrine‐stimulated (effect of peptide vs control) (perfused rat liver; listed as GRPP‐LP): not modified by rGRPP or GRPP‐LP
human glicentin 1–16: human glicentin 1–16, literature peptide (RSLQDTEEKSRSFSAS; Glicentin; UniProt P01275 21-36, looked up, fragment) | – | – | – | – | – | – | – | – | – | – | – | Plasma insulin and glucagon, canine pancreas (canine pancreas; local circulation preparation of the canine pancreas, ref Ohneda and Ohneda 1988): slight increases in plasma insulin and decreases in plasma glucagon
